Values of other authors as cited in patent US8147876B2, “Medical agent for preventing or treating diseases resulting from one of inflammation and remodeling, and method for preventing or treating the diseases” (National University Corporation Tokyo Medical and Dental …, priority 2007, dated 2012).

System: VCAM-1
Details: human tracheal smooth muscle cells, J Cell Physiol. 2006

COc1cc(/C=C/C(=O)CC(=O)/C=C/c2ccc(O)c(OC)c2)ccc1O [Curcumin]
TNFα-induced VCAM-1 expression: inhibit
